Experimental data: patent US20250313563A1, “GLYCOGEN SYNTHASE KINASE 3 INHIBITORS AND USES THEREOF” (The Broad Institute, Inc., priority 2022, published 2025)
Read-outs that look alike come from different tables or passages of the source.

Experiments:
[1] = target: GSK3α (GST-full length GSK3α) (Homo sapiens (Human), UniProt P49840); experiment: GSK3α TR-FRET kinase assay; assay type: biochemical
In short: (§1)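 Compound was preincubated 30 min with 1 nM GST-GSK3 enzyme. Reaction ran 100 min at ambient temperature in Tris pH 7.5/MgCl2 with 200 nM biotinylated pS645-glycogen synthase 631-650 peptide and ATP (4 μM GSK3α, 2 μM GSK3b, or 1 mM). The EDTA-stopped reaction was read by TR-FRET (Tb-anti-pSer641/streptavidin-d2), and IC50s were fitted.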

[2] = target: GSK3b (GST-full length GSK3b) (Homo sapiens (Human), UniProt P49841); experiment: GSK3b TR-FRET kinase assay; assay type: biochemical
Chain of GSK3b (GST-full length GSK3b) (P49841 whole entry): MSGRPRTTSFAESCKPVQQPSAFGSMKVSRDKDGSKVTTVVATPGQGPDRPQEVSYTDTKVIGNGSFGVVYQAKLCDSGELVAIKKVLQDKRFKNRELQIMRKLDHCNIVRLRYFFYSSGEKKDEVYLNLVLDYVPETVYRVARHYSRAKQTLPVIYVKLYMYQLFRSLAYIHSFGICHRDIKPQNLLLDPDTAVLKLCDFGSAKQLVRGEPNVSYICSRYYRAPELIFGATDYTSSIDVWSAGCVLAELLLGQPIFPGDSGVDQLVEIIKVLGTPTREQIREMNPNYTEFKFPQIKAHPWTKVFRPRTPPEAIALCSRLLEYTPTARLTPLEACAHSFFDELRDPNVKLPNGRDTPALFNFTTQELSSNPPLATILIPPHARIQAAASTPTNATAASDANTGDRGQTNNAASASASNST
In short: as §1

[3] = 1 nM GSK3α, 4 μM ATP, 30 minute preincubation, Table 16, read-out: GSK3-A TR-FRET BIOCHEMICAL (TR-FRET), IC50
[4] = 1 nM GSK3b, 2 μM ATP, 30 minute preincubation, Table 16, read-out: GSK3-B TR-FRET BIOCHEMICAL (TR-FRET), IC50
[5] = 1 nM GSK3α, 4 μM ATP, 30 minute preincubation, Table 16, read-out: GSK3-A TR-FRET BIOCHEMICAL (TR-FRET)
[6] = 1 nM GSK3b, 2 μM ATP, 30 minute preincubation, Table 16, read-out: GSK3-B TR-FRET BIOCHEMICAL (TR-FRET)
[7] = 1 nM GSK3α, 4 μM ATP, 30 minute preincubation, read-out: GSK3-A TR-FRET BIOCHEMICAL (TR-FRET), IC50
[8] = 1 nM GSK3b, 2 μM ATP, 30 minute preincubation, read-out: GSK3-B TR-FRET BIOCHEMICAL (TR-FRET), IC50

Chain of GSK3α (GST-full length GSK3α) (P49840 whole entry): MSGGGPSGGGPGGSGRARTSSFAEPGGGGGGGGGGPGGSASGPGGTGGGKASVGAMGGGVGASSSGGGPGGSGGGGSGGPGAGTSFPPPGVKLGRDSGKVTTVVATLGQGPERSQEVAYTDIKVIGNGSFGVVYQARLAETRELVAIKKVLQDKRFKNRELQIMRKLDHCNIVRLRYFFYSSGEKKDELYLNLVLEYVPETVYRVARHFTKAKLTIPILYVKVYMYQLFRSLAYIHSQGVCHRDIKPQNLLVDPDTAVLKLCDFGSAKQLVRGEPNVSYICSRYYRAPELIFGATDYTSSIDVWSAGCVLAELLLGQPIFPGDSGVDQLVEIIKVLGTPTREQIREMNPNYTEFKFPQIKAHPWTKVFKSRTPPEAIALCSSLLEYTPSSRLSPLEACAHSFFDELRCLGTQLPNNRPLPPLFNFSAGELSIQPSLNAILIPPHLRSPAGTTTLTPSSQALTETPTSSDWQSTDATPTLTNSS

SMILES | IC50 [1, 3] [nM] | IC50 [2, 4] [nM] | further results
CCC1(c2cccc(N3CCCC3C)c2)C2=C(CC(C)(C)CC2=O)Nc2n[nH]cc21 (stereo not drawn) [Compound 918321] | ≤ 100 | ≤ 100 | –
CCN(c1cccc(C2(CC)C3=C(CC(C)(C)CC3=O)Nc3n[nH]cc32)c1)c1ncccn1 (stereo not drawn) [Compound 919840] | ≤ 100 | ≤ 100 | –
CC1(C)CC(=O)C2=C(C1)Nc1n[nH]cc1[C@]21CCOC(C)(C)C1 [Compound 924298] | 1000 to 5000 | 1000 to 5000 | –
CC1(C)CC(=O)C2=C(C1)Nc1n[nH]cc1[C@@]21CCOC(C)(C)C1 [Compound 924299] | – | – | IC50 [1, 5]: 100 to 1000 nM; IC50 [2, 6]: 100 to 1000 nM
CC1(C)CC(=O)C2=C(C1)Nc1n[nH]cc1[C@@]21CCOC2(CCOCC2)C1 [Compound 924306] | – | – | IC50 [1, 7]: 100 to 1000 nM; IC50 [2, 8]: 100 to 1000 nM
C[C@H]1C[C@]2(CCO1)C1=C(CC(C)(C)CC1=O)Nc1n[nH]cc12 [Compound 924307] | – | – | IC50 [1, 5]: 100 to 1000 nM; IC50 [2, 6]: 100 to 1000 nM
C[C@@H]1C[C@@]2(CCO1)C1=C(CC(C)(C)CC1=O)Nc1n[nH]cc12 [Compound 924308] | – | – | IC50 [1, 5]: 100 to 1000 nM; IC50 [2, 6]: 100 to 1000 nM
C[C@H]1COCC[C@@]12C1=C(CC(C)(C)CC1=O)Nc1n[nH]cc12 [Compound 924309] | 1000 to 5000 | > 5000 | –
CC[C@@H]1C[C@@]2(CCO1)C1=C(CC(C)(C)CC1=O)Nc1n[nH]cc12 [Compound 924715] | – | – | IC50 [1, 5]: ≤ 100 nM; IC50 [2, 6]: 100 to 1000 nM
CC1(C)CC(=O)C2=C(C1)Nc1n[nH]cc1C21COC2(CN(S(C)(=O)=O)C2)C1 (stereo not drawn) [Compound 926808] | – | – | IC50 [1, 7]: ≤ 100 nM; IC50 [2, 8]: ≤ 100 nM
C[C@H]1C[C@@]2(CCN1S(=O)(=O)c1ccn(C)n1)C1=C(CC(C)(C)CC1=O)Nc1n[nH]cc12 [Compound 926815] | – | – | IC50 [1, 5]: ≤ 100 nM; IC50 [2, 6]: ≤ 100 nM
CC1(C)CC(=O)C2=C(C1)Nc1n[nH]cc1[C@]21COC2(CN(S(C)(=O)=O)C2)C1 [Compound 926823] | – | – | IC50 [1, 7]: 100 to 1000 nM; IC50 [2, 8]: 1000 to 5000 nM
C[C@H]1C[C@]2(CCN1S(C)(=O)=O)C1=C(CC(C)(C)CC1=O)Nc1n[nH]cc12 [Compound 926827] | – | – | IC50 [1, 5]: ≤ 100 nM; IC50 [2, 6]: ≤ 100 nM
C[C@H]1C[C@]2(CCN1S(=O)(=O)c1ccn(C)n1)C1=C(CC(C)(C)CC1=O)Nc1n[nH]cc12 [Compound 926832] | – | – | IC50 [1, 5]: ≤ 100 nM; IC50 [2, 6]: 100 to 1000 nM
CCC1(c2cccc(-c3cn(C)nc3C)c2)C2=C(CC(C)(C)CC2=O)Nc2n[nH]cc21 (stereo not drawn) [Compound 926840] | ≤ 100 | ≤ 100 | –
CC(=O)N1CC2(C1)C[C@]1(CO2)C2=C(CC(C)(C)CC2=O)Nc2n[nH]cc21 [Compound 926861] | – | – | IC50 [1, 7]: ≤ 100 nM; IC50 ([1]; read-out: GSK3-A (TR-FRET 1 mM ATP), GMean, IC50, 1 mM ATP, geometric mean): ≤ 100 nM; IC50 [2, 8]: ≤ 100 nM; IC50 ([2]; read-out: GSK3-B (TR-FRET 1 mM ATP), GMean, IC50, 1 mM ATP, geometric mean): ≤ 100 nM

More lines, main results first:

IC50 [1, 3] [nM] | IC50 [2, 4] [nM] | SMILES | further results
> 5000 | > 5000 | CC[C@]1(c2cccc(N3CCC[C@H]3C)c2)C2=C(CC(C)(C)CC2=O)Nc2n[nH]cc21 [Compound 918322] | –
100 to 1000 | 100 to 1000 | CCC1(c2cccc(N3CC(C)C(C)C3)c2)C2=C(CC(C)(C)CC2=O)Nc2n[nH]cc21 (stereo not drawn) [Compound 918326] | –
1000 to 5000 | > 5000 | CCC1(c2cccc(N3CC(C)C(C)C3)c2)C2=C(CC(C)(C)CC2=O)Nc2n[nH]cc21 (stereo not drawn) [Compound 918327] | –
> 5000 | > 5000 | C[C@@H]1COCC[C@]12C1=C(CC(C)(C)CC1=O)Nc1n[nH]cc12 [Compound 924310] | –
100 to 1000 | 1000 to 5000 | CC[C@H]1C[C@]2(CCO1)C1=C(CC(C)(C)CC1=O)Nc1n[nH]cc12 [Compound 924311] | –
100 to 1000 | 100 to 1000 | CCC1(c2cccc(N3CC(C)C(C)C3)c2)C2=C(CC(C)(C)CC2=O)Nc2n[nH]cc21 (stereo not drawn) [Compound 924504] | –
> 5000 | > 5000 | CC[C@]1(c2cccc(N3C[C@H](C)[C@@H](C)C3)c2)C2=C(CC(C)(C)CC2=O)Nc2n[nH]cc21 [Compound 924520] | –
100 to 1000 | 1000 to 5000 | CCC1(c2cccc(N(C)c3nc(C)cc(C)n3)c2)C2=C(CC(C)(C)CC2=O)Nc2n[nH]cc21 (stereo not drawn) [Compound 926304] | –
≤ 100 | 100 to 1000 | CCC1(c2cccc(-c3cnn4c3CCCC4)c2)C2=C(CC(C)(C)CC2=O)Nc2n[nH]cc21 (stereo not drawn) [Compound 926836] | –
≤ 100 | 100 to 1000 | CCC1(c2cccc(-c3cnnc(C)c3)c2)C2=C(CC(C)(C)CC2=O)Nc2n[nH]cc21 (stereo not drawn) [Compound 926844] | –
